Reference: ChEMBL document CHEMBL1126898 (J Med Chem, 1993)

Molecular target: Sodium-dependent dopamine transporter (Rattus norvegicus, UniProt P23977)
Assay: Inhibition of [3H]WIN-35428 binding to dopamine transporter in rat striatal membranes.
Format: cell membranes, Membrane

Sodium-dependent dopamine transporter, sequence (P23977 whole entry): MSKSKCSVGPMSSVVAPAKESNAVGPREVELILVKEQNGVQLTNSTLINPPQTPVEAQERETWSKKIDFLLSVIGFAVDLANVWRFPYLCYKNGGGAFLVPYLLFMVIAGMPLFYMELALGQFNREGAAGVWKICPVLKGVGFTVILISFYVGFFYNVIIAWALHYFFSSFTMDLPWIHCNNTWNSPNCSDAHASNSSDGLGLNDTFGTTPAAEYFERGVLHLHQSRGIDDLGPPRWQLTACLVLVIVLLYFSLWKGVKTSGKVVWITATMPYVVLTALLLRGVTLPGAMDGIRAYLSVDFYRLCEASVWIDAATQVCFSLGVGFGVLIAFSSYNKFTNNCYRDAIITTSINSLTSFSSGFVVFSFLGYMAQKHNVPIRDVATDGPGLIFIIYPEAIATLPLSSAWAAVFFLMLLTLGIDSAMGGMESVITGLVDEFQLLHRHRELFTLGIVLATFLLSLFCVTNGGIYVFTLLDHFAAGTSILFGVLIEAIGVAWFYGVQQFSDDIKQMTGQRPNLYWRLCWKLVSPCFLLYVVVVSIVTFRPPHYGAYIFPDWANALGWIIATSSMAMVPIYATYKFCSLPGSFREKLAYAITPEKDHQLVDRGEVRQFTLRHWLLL

Q: For `CN1C2CCC1C(C(=O)OCCc1ccc(N)cc1)[C@H](OC(=O)c1ccccc1)C2` (stereo not given in full), which IC50 is on record?
A: The IC50 was 72 nM.

Q: How did the IC50 turn out when `CN1C2CCC1C(CO)[C@H](OC(=O)c1ccccc1)C2` (stereo not given in full) was run?
A: The IC50 was 561 nM.

Q: How did the IC50 turn out when `COC(=O)C1C2CCC(C[C@H]1c1ccccc1)N2C` (stereo not given in full) was run?
A: The IC50 was 23 nM.

Q: `COC(=O)C1C2CCC(C[C@H]1OC(=O)c1ccccc1)N2` (stereo not given in full) was tested. Which IC50 did it give?
A: Its IC50 is 303 nM.

Q: With `CN1C2CCC1C(C(=O)OCCc1ccccc1)[C@H](OC(=O)c1ccccc1)C2` (stereo not given in full) as the molecule, how does the IC50 read?
A: The IC50 was 248 nM.

Q: Which IC50 does the source give for `CN1C2CCC1C(C(=O)Oc1ccccc1)[C@H](OC(=O)c1ccccc1)C2` (stereo not given in full) here?
A: The IC50 was 112 nM.

Q: With `COC(=O)[C@H]1C2CCC(C[C@@H]1OC(=O)c1ccccc1)N2` (stereo in doubt; form 2) [PSEUDOCOCAINE] as the molecule, how does the IC50 read?
A: The IC50 was 15800 nM.

Q: For `COC(=O)C1C2CCC(C[C@H]1c1ccc(N)cc1)N2C` (stereo not given in full), which IC50 is on record?
A: The IC50 was 25 nM.

Q: With `COC(=O)[C@H]1C2CCC(C[C@@H]1OC(=O)c1ccccc1)N2` (stereo in doubt; form 1) [PSEUDOCOCAINE] as the molecule, how does the IC50 read?
A: Its IC50 is 22500 nM.

Q: With `COC(=O)C1C2CCC(C[C@H]1OC(=O)c1ccccc1)N2Cc1ccccc1` (stereo not given in full) as the molecule, how does the IC50 read?
A: The IC50 was 668 nM.
